For experiment [1], the system named is Ramos RA1 B cells. Put plainly: Ramos FLIPR Assay (intracellular calcium flux, anti-human IgM stimulated). The experiment is classed as cell-based. The conditions noted are these: for IC50: Ramos; for Potency Difference Ramos: ratio of IC50 value for the Comparative Example to that for the corresponding Example: Comparative Example (stereoisomer) IC50 / Example IC50. Here is the method: Ramos FLIPR Assay […] Dye-loaded cells were pelleted (Beckmann GS-CKR, 1200 rpm, room temperature, 5 min) and resuspended at room temperature in RPMI minus phenol red with 50 mM HEPES and 10% FBS to a density of 1×10^6 cells/mL. 150 μL aliquots (150,000 cells/well) were plated into 96 well poly-D-lysine coated assay plates (BD 35 4640) and briefly centrifuged (Beckmann GS-CKR 800 rpm, 5 min, without brake). Next, 50 μL compound dilutions in 0.4% DMSO/RPMI minus phenol red+50 mM HEPES+10% FBS were added to the wells and the plate was incubated at room temperature in the dark for 1 hour. The assay plate was briefly centrifuged as above prior to measuring calcium levels. Using the […] (Molecular Devices), cells were stimulated by adding goat anti-human IgM (Invitrogen AHI0601) to 2.5 μg/mL. Changes in intracellular calcium concentrations were measured for 180 seconds and percent inhibition was determined relative to peak calcium levels seen in the presence of stimulation only. The Ramos assay measures the ability of a compound to move through the cell membrane into the cell interior. A lower IC50 value indicates a greater ability to move into the cell interior.
On the technique in general: Calcium assays in cells follow changes in intracellular calcium, usually with a dye or a luminescent sensor.

Experiment [2] has as its target human recombinant Btk (Homo sapiens (Human), UniProt Q06187). Briefly: Human Recombinant Btk Enzyme Assay. The experiment is classed as biochemical. As to conditions: for Potency Difference Btk: ratio of IC50 value for the Comparative Example to that for the corresponding Example: Comparative Example (stereoisomer) IC50 / Example IC50. The procedure:
Human Recombinant Btk Enzyme Assay
To V-bottom 384-well plates were added test compounds, human recombinant Btk (1 nM, Invitrogen Corporation), fluoresceinated peptide (1.5 μM), ATP (20 μM), and assay buffer (20 mM HEPES pH 7.4, 10 mM MgCl2, 0.015% Brij 35 surfactant and 4 mM DTT in 1.6% DMSO), with a final volume of 30 μL. After incubating at room temperature for 60 min, the reaction was terminated by adding 45 μL of 35 mM EDTA to each sample. The reaction mixture was analyzed on the Caliper LABCHIP® 3000 (Caliper, Hopkinton, Mass.) by electrophoretic separation of the fluorescent substrate and phosphorylated product. […] Compounds were dissolved at 10 mM in DMSO and evaluated at eleven concentrations.

[3] abbreviates: Homo sapiens, Table 4, Comparative Example, read-out: Comparative Example Ramos IC50.
The mark [4] stands for this setting: Table 4, Comparative Example, read-out: Comparative Example Btk IC50.
Where [5] appears, read: Homo sapiens, Table 4, read-out: Example Ramos IC50.
Setting [6] is: Table 3, calcium flux, goat anti-human IgM 2.5 μg/mL, read-out: Ramos IC50 value.
[7] abbreviates: Table 3, ATP 20 μM, 60 min room temperature, read-out: Btk IC50 value.
Setting [8] is: Table 4, read-out: Example Btk IC50.

This is an account of results in patent US10023534B2 (BRISTOL-MYERS SQUIBB COMPANY, priority 2014, dated 2018).

Like-named read-outs stand apart in the source and are kept apart here.

For orientation: IC50 means the concentration needed to halve the response being measured.

human recombinant Btk, sequence (Q06187 whole entry): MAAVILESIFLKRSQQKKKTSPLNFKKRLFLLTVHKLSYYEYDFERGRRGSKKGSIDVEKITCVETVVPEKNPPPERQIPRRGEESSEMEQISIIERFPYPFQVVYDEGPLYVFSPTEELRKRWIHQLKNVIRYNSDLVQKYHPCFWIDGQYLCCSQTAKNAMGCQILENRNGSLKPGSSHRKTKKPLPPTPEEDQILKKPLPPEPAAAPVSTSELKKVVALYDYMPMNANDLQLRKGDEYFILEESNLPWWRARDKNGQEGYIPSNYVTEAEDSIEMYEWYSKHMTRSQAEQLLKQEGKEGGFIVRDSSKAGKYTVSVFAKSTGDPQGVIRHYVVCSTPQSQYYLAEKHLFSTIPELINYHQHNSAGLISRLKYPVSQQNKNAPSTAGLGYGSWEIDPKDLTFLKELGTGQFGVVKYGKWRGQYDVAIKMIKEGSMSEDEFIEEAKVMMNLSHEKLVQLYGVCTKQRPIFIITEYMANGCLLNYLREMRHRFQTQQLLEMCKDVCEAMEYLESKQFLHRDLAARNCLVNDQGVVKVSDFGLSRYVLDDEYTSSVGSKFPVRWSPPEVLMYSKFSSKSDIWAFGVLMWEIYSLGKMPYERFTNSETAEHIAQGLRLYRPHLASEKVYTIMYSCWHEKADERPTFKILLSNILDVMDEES

For `C=CC(=O)N1CCc2c(cccc2-c2c(F)cc(C(N)=O)c3[nH]c4cc(C(F)(F)F)ccc4c23)C1` (single isomer, unassigned) [Comparative Example 17, 4-(2-Acryloyl-1,2,3,4-tetrahydroisoquinolin-5-yl)-3-fluoro-7-(trifluoromethyl)-9H-carbazole-1-carboxamide], the IC50 in experiment [1] (setting [3]) was > 300 nM; in experiment [2] (setting [4]) it was 14 nM.

Regarding `C=CC(=O)N1CCSc2c(-c3c(F)cc(C(N)=O)c4[nH]c5ccccc5c34)cccc21` (single isomer, unassigned) [Comparative Example 23, 4-(4-Acryloyl-3,4-dihydro-2H-benzo[b][1,4]thiazin-8-yl)-3-fluoro-9H-carbazole-1-carboxamide], the IC50 in experiment [1] (setting [3]) was 150 nM; in experiment [2] (setting [4]), 4.4 nM.

For `C=CC(=O)N1CCCOc2c(-c3c(F)cc(C(N)=O)c4[nH]c5cc(C(F)(F)F)ccc5c34)cccc21` (single isomer, unassigned) [Example 12, 4-(5-Acryloyl-2,3,4,5-tetrahydrobenzo[b][1,4]oxazepin-9-yl)-3-fluoro-7-(trifluoromethyl)-9H-carbazole-1-carboxamide], the “Potency Difference Ramos: ratio of IC50 value for the Comparative Example to that for the corresponding Example” value in experiment [1] was 48. The IC50 came out at 6.2 nM in experiment [1] (setting [5]), 6.2 nM in experiment [1] (setting [6]), 0.37 nM in experiment [2] (setting [7]) and 0.37 nM in experiment [2] (setting [8]). Besides, the “Potency Difference Btk: ratio of IC50 value for the Comparative Example to that for the corresponding Example” value in experiment [2] is on record as 26.

Turning to `C=CC(=O)N1CCc2c(cccc2-c2c(F)cc(C(N)=O)c3[nH]c4c(c23)CC(F)(F)CC4)C1` (racemic) [Example 1, (RS)-5-(2-Acryloyl-1,2,3,4-tetrahydroisoquinolin-5-yl)-3,3,6-trifluoro-2,3,4,9-tetrahydro-1H-carbazole-8-carboxamide], the IC50 stood at 25 nM in experiment [1] (setting [6]) and 0.18 nM in experiment [2] (setting [7]).

`C=CC(=O)N1CCOc2c(-c3c(F)cc(C(N)=O)c4[nH]c5ccccc5c34)cccc21` (racemic) [Example 3, (RS)-4-(4-acryloyl-3,4-dihydro-2H-benzo[b][1,4]oxazin-8-yl)-3-fluoro-9H-carbazole-1-carboxamide]: the IC50 in experiment [1] (setting [6]) worked out at 4.6 nM; in experiment [2] (setting [7]), 0.075 nM.

Take `C=CC(=O)N1CCOc2c(-c3c(F)cc(C(N)=O)c4[nH]c5ccccc5c34)cccc21` (single isomer, unassigned) [Comparative Example 18, 4-(4-Acryloyl-3,4-dihydro-2H-benzo[b][1,4]oxazin-8-yl)-3-fluoro-9H-carbazole-1-carboxamide]: the results for the IC50 in experiment [1] (setting [3]) and in experiment [2] (setting [4]) were 65 nM and 1.5 nM, respectively.

As for `C=CC(=O)N1CCc2c(cccc2-c2c(F)cc(C(N)=O)c3[nH]c4ccc(Cl)cc4c23)C1` (racemic) [Example 29, 4-(2-acryloyl-1,2,3,4-tetrahydroisoquinolin-5-yl)-6-chloro-3-fluoro-9H-carbazole-1-carboxamide], the IC50 was 107 nM in experiment [1] (setting [6]) and 0.26 nM in experiment [2] (setting [7]).

Turning to `C=CC(=O)N1CCc2c(cccc2-c2c(F)cc(C(N)=O)c3[nH]c4cc(C(F)(F)F)ccc4c23)C1` (single isomer, unassigned) [Example 7, 4-(2-Acryloyl-1,2,3,4-tetrahydroisoquinolin-5-yl)-3-fluoro-7-(trifluoromethyl)-9H-carbazole-1-carboxamide], in experiment [1], the “Potency Difference Ramos: ratio of IC50 value for the Comparative Example to that for the corresponding Example” value is given as >27. Further, the half-inhibitory concentration (IC50) was found to be 11 nM in experiment [1] (setting [5]), 10.7 nM in experiment [1] (setting [6]), 0.18 nM in experiment [2] (setting [7]) and 0.18 nM in experiment [2] (setting [8]). Also, in experiment [2], the “Potency Difference Btk: ratio of IC50 value for the Comparative Example to that for the corresponding Example” value came out at 78.

On to `C=CC(=O)N1CCc2c(cccc2-c2c(F)cc(C(N)=O)c3[nH]c4cc(CCO)ccc4c23)C1` (racemic) [Example 25, 4-(2-acryloyl-1,2,3,4-tetrahydroisoquinolin-5-yl)-3-fluoro-7-(2-hydroxyethyl)-9H-carbazole-1-carboxamide], for which the IC50 stood at 28 nM in experiment [1] (setting [6]) and 1.5 nM in experiment [2] (setting [7]).

Turning to `C=CC(=O)N1CCc2c(cccc2-c2c(F)cc(C(N)=O)c3[nH]c4ccncc4c23)C1` (racemic) [Example 31, 9-(2-acryloyl-1,2,3,4-tetrahydroisoquinolin-5-yl)-8-fluoro-5H-pyrido[4,3-b]indole-6-carboxamide], the half-inhibitory concentration (IC50) in experiment [1] (setting [6]) is 13 nM; in experiment [2] (setting [7]), 0.3 nM.
